Results published in patent US20110021567A1, “PREPARATION OF LENALIDOMIDE” (DR. REDDY'S LABORATORIES LTD., priority 2008, published 2011).

Assay: storage stability of the amorphous form (material remains amorphous)
Format: physicochemical
Conditions: five days at 0-5° C., packaged in a polyethylene bag

Nc1cccc2c1CN(C1CCC(=O)NC1=O)C2=O (stereo not shown) [Example 8, 3-(4-amino-1-oxo-1,3-dihydro-2H-isoindol-2-yl)piperidine-2,6-dione]
physical form on storage: remains amorphous
